According to US6602687B1, “DNA encoding human ciliary neurotrophic factor and method for producing the protein encoded thereby” (Regeneron Pharmaceuticals, Inc., priority 1989, dated 2003):

Columns and labels:
[1] = system: chick embryonic spinal motorneurons; test: Survival of chick embryonic spinal motorneurons in culture; format: cell-based; parameters: key to Survival: −: not significantly different from control (survival: 8.3 ± 3.8%, mean ± SD, n = 18); ±: about 15-20% (statistically significant from each blank control, p < 0.01); + +: about 35-55%; + ++: about 55-75%; conditions: for Survival / Motoneuron survival (%): after 3 days in culture; for Survival: one concentration per molecule, Table VI, CNTF rat, rec.; for survival effect on motoneurons: supramaximal concentrations, NT-3 produced by transfected Cos-cells; for highest survival effect of the concentration-response curve: CNTF = recombinant rat; for Motoneuron survival (%): mean ± SEM (n = 4), IGF-I 1 μg/ml, Basic FGF 30 ng/ml, CNTF 1.5 ng/ml
Method: Motorneuron columns were dissected under a stereomicroscope from the lumbar part of the spinal cord of chick embryos on the 6th day of embryonic development and stored in cold calcium and magnesium-free Hanks balanced salt solution supplemented with glucose (4 g/l) (HBSS). The tissues were washed with HBSS and treated with 0.03% trypsin in HBSS at 37° C. for 20 min with gentle shaking, rinsed with cold HBSS and triturated mildly in 3 steps of 8-passage agitation in 1 ml of cold 0.1% soybean trypsin inhibitor (Sigma) in HBSS through a fire-polished siliconized Pasteur pipette. Each supernatant cell suspension was filtered through 50 μm-Nylon mesh, pooled and layered onto 4 ml of cold 6.8% metrizamide (Fluka) in HBSS-25 mM HEPES (pH7.4) in a 12 ml-siliconized conical glass tube. The tube was centrifuged at 400 g for 15 min at 4° C. and the intermediate layer (0.5 ml) was collected into another siliconized tube containing 6.5 ml of cold culture medium (a mixture of glucose (4 g/l)-supplemented Leibovitz's L-15 medium (Gibco), 0.15 M sodium bicarbonate, heat-inactivated and filtered horse serum and penicillin G (10^5 units/ml) at the ratio of 75:15:10:0.1, freshly prepared and buffered with 5% CO2.) After centrifugation at 100×g for 7 min at 4° C., the supernatant was removed and the cells were gently resuspended in culture medium and plated in Greiner 4-well culture dishes (well diameter, 10 mm; C. A. Greiner und Sohne GmbH, Nurtingen, West Germany) at 1000-2000 cells/well. The dishes had been precoated with poly-DL-ornithine (Sigma, 0.5 mg in 0.15 M sodium borate buffer (pH 8.3) overnight at 4° C., rinsed twice with phosphate-buffered saline (PBS) and subsequently coated with laminin (Gibco; 10 μg/ml in the serum-depleted culture medium) and placed in a 5% CO2-incubator until cell plating (5-6 hrs). Cells were incubated at 37° C. in a humidified 5% CO2- and 95% air-incubator. Samples were added one hr after plating and the culture medium changed after 24 hrs and 72 hrs. The initial cell numbers were counted 3 hrs after plating.
In some experiments motor neurons were retrogradely labeled with a fluorescent dye in vivo before cell preparation (U. Dohrman et al., 1986, Dev. Biol. 118:209-221) to identify the motor neuron cell population. A small hole was made in the shell of eggs which had been incubated for 5 days. Small pieces of rhodamine isothiocyanate crystals (Sigma) were inserted at two or three places into each hind limb thigh and the egg hole was sealed with a cellophane tape. The eggs were incubated for another 24 hrs. Some of the operated embryos were then processed for frozen sections after formaldehyde fixation. […] The other embryos were used for cell preparation using the method described above (18.1.1). After 5 hrs in culture cells were rinsed with warm HBSS, fixed with 4% formaldehyde in PBS at room temperature for 20 min, rinsed with PBS and then mounted in glycerol-PBS (1:1) with glass coverslips. Of the total cells approximately 83% were labeled and identified as motorneurons (FIG. 42.) Most of these labeled motorneurons were large cells and the rest were intermediate-size cells. No small cells were labeled. On the other hand, in experiments in which cells were not labeled with a fluorescent dye about 70% of the total cells were large phase-bright cells with round cell somas, about 20% were intermediate-size neurons (most of them may be motorneurons) and about 10% were small immature neurons (they have neuron-like processes with growth cones but have phase-dark semi-flat cell somas). Non-neuronal cells were either not present or accounted for less than 2%. Taken together, one may conclude that at least 83% of the cells are motorneurons while the remainder consists of non-labeled motorneurons, a small number of unidentified intermediate-size neurons and about 10% immature small neurons. […]

[2] = system: E8 chick ciliary ganglion neurons; test: Survival of dissociated E8 chick ciliary ganglion neurons; format: cell-based; conditions: cultured two days with a range of peptide concentrations
Excerpt: Ciliary neurotrophic factor activity may be evaluated using any CNTF-sensitive in vivo or in vitro system known in the art. For example, and not by way of limitation, in vitro systems have been developed which measure CNTF activity by quantitating 24-hour survival of embryonic (E8) chick ciliary ganglion (CG) neurons in monolayer cultures.
For example, ciliary ganglia may be collected from E8 chick embryos, dissociated (yielding approximately 20,000 cells per ganglion) and then diluted in HEBM medium containing 20 percent horse serum as described in Varon et al. (1979, Brain Res. 173:29-45). […] Culture plates may then be maintained at 37° C. in 5% CO2 for 24 hours, after which the cultures may be fixed by the addition of 200 μl 2 per cent glutaraldehyde in HEBM medium, and the number of surviving neurons may be determined visually by direct count under phase contrast microscopy. […]
Biological activity of recombinant CNTF was assayed on explants of chick embryo dorsal root ganglia (DRG) and dissociated cultures of ciliary ganglion (CG) neurons as described in Lindsay and Rohrer (1985, Devel. Biol 112:30-48). […] In explant cultures CNTF activity was determined by assessing the extent of fiber outgrowth in treated cultures compared to controls. Fiber outgrowth was scored on a scale of 0 to 5+, by comparing cultures to photographs of a dose-response of explanted DRG and NGF. […]

[3] = system: hippocampal neurons; test: Glutamate-induced toxicity in hippocampal cultures (MTT assay); format: cell-based, rat; conditions: glutamate 1 mM for 15 minutes, MTT after 20 h
Method: FIG. 38. Protective effect of CNTF on glutamate-induced toxicity in hippocampal cultures. […] Glutamate at various concentations (100-1000 uM) was added for 15 minutes, after which the cells were cultured in the absence of glutamate or CNTF for 20 h. Survival of cells at the end of the culture period was assessed by MTT assay based on the conversion of MTT (3-(4,5-dimethylthiazol-2-yl)-2,5-diphenyl tetrazolium bromide) to a purple product by vital cells. MTT dye was added to a final concentration of 0.5 mg/ml. Dyes taken up by live cells were solubilized by the addition of 0.08N HCI in isopropranol 5 hours later, and O.D. (570-650 nm) was measured.
The effect of CNTF on GABAergic neurons was dependent on the density at which the cells were plated. […] This may be due to an elevated level of neurotrophic factors in high density cultures. […] We have assessed the neurotoxic effects of various concentrations of glutamate (10-1000 μM) by means of a calorimetric MTT assay, as shown in FIG. 38. At a concentration of 1 mM, glutamate reduced cell survival to approximately 10%. In the presence of CNTF ([…]), cell survival following exposure to glutamate was enhanced.

| Compound | Survival [1] | survival effect on motoneurons [1] | concentration at which the highest survival effect was obtained ([1]; 3 days in culture) | highest survival effect of the concentration-response curve ([1]; 3 days in culture) | other results |
| --- | --- | --- | --- | --- | --- |
| IL-1β: IL-1β (human, rec.) | − | no discernable effect |  |  |  |
| IGF-I: insulin-like growth factor I (human, rec.) | ± (about 15-20% (statistically significant from each blank control, p < 0.01)) |  | 100 ng/mL | 15% | Motoneuron survival (%) [1]: 14.5 ± 0.5 % |
| PDGF | − | no discernable effect |  |  |  |
| MVLLEQKIPENEADGMPATVGDGGLFEK (MVLLEQKIPENEADGMPATVGDGGLFEK) [28 amino acid synthetic peptide fragment] |  |  |  |  | neurotrophic activity (neuronal survival) [2]: A dose-response relationship was observed |
| TGFβ1: TGFβ1 (porcine, rec.) | − | no discernable effect |  |  |  |
| N[C@@H](CCC(=O)O)C(=O)O [glutamate, reference compound] |  |  |  |  | cell survival after glutamate [3]: approximately 10% |
| TGFa: TGFa (human, rec.) | − | no discernable effect |  |  |  |
| IGF-II: insulin-like growth factor II (human, rec.) | ± (about 15-20% (statistically significant from each blank control, p < 0.01)) |  | 300 ng/mL | 15% |  |
| Transferrin: Transferrin (human) | − |  |  |  |  |
| Acidic FGF: acidic FGF (human, rec.) | ± (about 15-20% (statistically significant from each blank control, p < 0.01)) |  | 300 ng/mL | 18% | concentration at which the highest survival effect was obtained, in the presence of 1 μg/ml heparin ([1]; 3 days in culture): 100 ng/mL; highest survival effect of the concentration-response curve, in the presence of 1 μg/ml heparin ([1]; 3 days in culture, heparin only first 24 hr): 35% |
| Basic FGF: basic fibroblast growth factor (human, rec.) | + + (about 35-55%) |  | 30 ng/mL | 51% | Motoneuron survival (%) [1]: 51.9 ± 3.6%; EC50 ([1]; motorneuron survival, 3 days in culture): 0.26 ng/mL |
| Insulin: Insulin (bovine) | ± (about 15-20% (statistically significant from each blank control, p < 0.01)) |  | 25000 ng/mL | 16% |  |
